Among the data in patent US7514417B2 (CV Therapeutics, Inc., priority 2005, dated 2009) are Ki and half-life values, retold here.

The first series has as its target T1, A1 adenosine receptor (Mesocricetus auratus, UniProt A0A1U8BVR4).
T1 construct: A1 adenosine receptor sites on the membranes of DDT cells; endogenous in cells; host or cells: DDT cells (DDT1, hamster vas deferens smooth muscle cell line), membrane preparation
T1 sequence (A0A1U8BVR4 1-326): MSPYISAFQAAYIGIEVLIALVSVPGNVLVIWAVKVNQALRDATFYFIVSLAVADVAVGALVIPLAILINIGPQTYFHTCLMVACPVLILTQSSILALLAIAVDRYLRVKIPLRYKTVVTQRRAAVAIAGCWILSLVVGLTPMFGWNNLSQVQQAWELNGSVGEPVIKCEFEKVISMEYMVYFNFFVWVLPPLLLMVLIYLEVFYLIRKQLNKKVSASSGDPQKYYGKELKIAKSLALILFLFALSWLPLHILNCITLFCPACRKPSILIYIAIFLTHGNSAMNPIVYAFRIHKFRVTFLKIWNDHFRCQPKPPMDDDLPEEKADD
The experiment in a line: Competitive radioligand binding assay, A1 binding affinity, DDT1 cell membranes. Also noted: species or system hamster. The settings on record: membranes of DDT cells, tritiated radioligand (3H-CPA) 1.5 nM, 23° C. 90 minutes. As for the experimental part: DDT cells (hamster vas deferens smooth muscle cell line) were grown as monolayers in petri dishes using Dulbecco's Modified Eagle's Medium (DMEM) containing 2.5 μg mL^−1 amphotericin B, 100 U mL^−1 penicillin G, 0.1 mg mL^−1 streptomycin sulfate and 5% fetal bovine serum in a humidified atmosphere of 95% air and 5% CO2. Cells were subcultured twice weekly by dispersion in Hank's Balanced Salt Solution (HBSS) without the divalent cations and containing 1 mM EDTA. The cells were then seeded in growth medium at a density of 1.2×10^5 cells per plate and experiments were performed 4 days later at approximately one day preconfluence.
Attached cells were washed twice with HBSS (2×10 mL), scraped free of the plate with the aid of a rubber policeman in 5 mL of 50 mM Tris-HCl buffer pH 7.4 at 4° C. and the suspension was homogenized for 10 s. The suspension was then centrifuged at 27,000×g for 10 min. The pellet was resuspended in homogenization buffer by vortexing and centrifuged again as described above. The final pellet was resuspended in 1 vol of 50 mM Tris-HCl buffer pH 7.4 containing 5 mM MgCl2 for A1 adenosine receptor assays. For the [^35S]GTPγS binding assay the final pellet was resuspended in 50 mM Tris-HCl pH 7.4 containing 5 mM MgCl2, 100 mM NaCl and 1 mM dithiothreitol. This membrane suspension was then placed in liquid nitrogen for 10 min and stored at −80° C. Aliquots of the membrane suspension were later thawed and used for assays. The protein content was determined with a Bradford™ Assay Kit using bovine serum albumin as standard.
Briefly, 50-70 ug of membrane protein were incubated in a mixture containing 2U/ml adenosine deaminase and 10 μM GTP-γS in 50 mM Tris-HCl buffer, pH 7.4, with 1 mM EDTA in glass tubes. Stock solutions of the compounds of the invention were serially diluted (10^−10M to 10^−4M) in Tris buffer and added to the incubation mixture. […] After incubation at 23° C. 90 minutes, the reaction was stopped by filtration on a Brandel MR24 cell harvester and washing with ice-cold Tris-EDTA buffer (three times, approximate volume 10 ml/wash) over Whatman GF/B filters (presoaked for 1 h in 0.3% polyethylenimine to reduce non-specific binding). Filters were transferred to scintillation vials and 5 ml of Scintisafe (VWR, Brisbane, Calif.) was added. The amount of radioactivity retained on the filters was determined by liquid scintillation spectrometry.
In turn, `CCOC(=O)c1cnn(-c2nc(NC3CC4CCC3C4)c3ncn(C4O[C@H](CO)[C@@H](O)[C@H]4O)c3n2)c1` (stereo partly drawn) [XXXIII, ethyl 1-{9-[(4S,3R,5R)-3,4-dihydroxy-5-(hydroxymethyl)oxolan-2-yl]-6-(bicyclo[2.2.1]hept-2-ylamino)purin-2-yl}pyrazole-4-carboxylate] yielded a Ki of 2 nM.

Consider `O=C(O)c1cnn(-c2nc(NC3CC4CCC3C4)c3ncn(C4O[C@H](CO)[C@@H](O)[C@H]4O)c3n2)c1` (stereo partly drawn) [XXXIV, 1-{9-[(4S,3R,5R)-3,4-dihydroxy-5-(hydroxymethyl)oxolan-2-yl]-6-(bicyclo[2.2.1]hept-2-ylamino)purin-2-yl}pyrazole-4-carboxylic acid], for which affinity was put at a Ki of 1 nM.

As for `CNC(=O)c1cnn(-c2nc(NC3CCCC3)c3ncn([C@@H]4O[C@H](CO)[C@@H](O)[C@H]4O)c3n2)c1` [XXXV, (1-{9-[(4S,3R,5R)-3,4-dihydroxy-5-(hydroxymethyl)oxolan-2-yl]-6-(cyclopentylamino)purin-2-yl}pyrazol-4-yl)-N-methylcarboxamide], affinity was put at a Ki of 1 nM.

“(4S,3R,5R)-2-[2-(4-butyl-3,5-dimethylpyrazolyl)-6-(cyclopentylamino)purin-9-yl]-5-(hydroxymethyl)oxolane-3,4-diol [XXVIII]” yielded a Ki of 188 nM.

“(4S,3R,5R)-2-[6-(bicyclo[2.2.1]hept-2-ylamino)-2-pyrazolylpurin-9-yl]-5-(hydroxymethyl)oxolane-3,4-diol [XXXVI]” registered an inhibition constant (Ki) of 0.4 nM.

Tested on in a further series: not given
Assay: not given
The settings on record: cited from earlier work.
Consider `Nc1ncnc2c1ncn2[C@@H]1O[C@H](CO)[C@@H](O)[C@H]1O` [adenosine], for which the half-life result was “less than 10 sec”.
